Structures can show the parent of a compound that is named as a salt.

Holding throughout (format): in vivo
The test system of data set [1] is BAW (Spodoptera exigua). Kind of data set: Bioassay on beet armyworm (BAW), 128-well diet tray assay. As to conditions: 50 μg/cm2 on artificial diet, second instar larvae, five to seven days, 25° C.; for mortality at 50 µg/cm2: Spodoptera exigua, 168 h. On the procedure:
(§1) Certain molecules disclosed in this document were tested against BAW and CEW using procedures described in the following examples. In the reporting of the results, the “BAW & CEW Rating Table” was used (See Table Section).
Bioassays on BAW were conducted using a 128-well diet tray assay. one to five second instar BAW larvae were placed in each well (3 mL) of the diet tray that had been previously filled with 1 mL of artificial diet to which 50 μg/cm^2 of the test compound (dissolved in 50 μL of 90:10 acetone-water mixture) had been applied (to each of eight wells) and then allowed to dry. Trays were covered with a clear self-adhesive cover, and held at 25° C., 14:10 light-dark for five to seven days. Percent mortality was recorded for the larvae in each well; activity in the eight wells was then averaged. The results are indicated in the table entitled “Table 1” (See Table Section).

For data set [2], the system named is GPA (Myzus persicae). Kind of data set: Bioassay on green peach aphid (GPA), foliar spray on cabbage seedlings. Conditions: 200 ppm spray on cabbage seedlings, three days, Abbott corrected % control; for mortality at 200 ppm: Myzus persicae, foliar, 72 h. As to the method:
Certain molecules disclosed in this document were tested against GPA using procedures described in the following example. In the reporting of the results, the “GPA Rating Table” was used (See Table Section).
Cabbage seedlings grown in 3-inch pots, with 2-3 small (3-5 cm) true leaves, were used as test substrate. The seedlings were infested with 20-50 GPA (wingless adult and nymph stages) one day prior to chemical application. Four pots with individual seedlings were used for each treatment. Test compounds (2 mg) were dissolved in 2 mL of acetone/methanol (1:1) solvent, forming stock solutions of 1000 ppm test compound. The stock solutions were diluted 5× with 0.025% Tween 20 in H2O to obtain the solution at 200 ppm test compound. A hand-held aspirator-type sprayer was used for spraying a solution to both sides of […] leaves until runoff. Reference plants (solvent check) were sprayed with the diluent only containing 20% by volume of acetone/methanol (1:1) solvent. Treated plants were held in a holding room for three days at approximately 25° C. and ambient relative humidity (RH) prior to grading. Evaluation was conducted by counting the number of live aphids per plant under a microscope. Percent Control was measured by using Abbott's correction formula (W. S. Abbott, “A Method of Computing the Effectiveness of an Insecticide” J. Econ. Entomol. 18 (1925), pp. 265-26′7) as follows. Corrected % Control=100*(X−Y)/X • where • X=No. of live aphids on solvent check plants and • Y=No. of live aphids on treated plants

Data set [3] concerns CEW (Helicoverpa zea). Nature of the data set: Bioassay on corn earworm (CEW), 128-well diet tray assay. Conditions: 50 μg/cm2 on artificial diet, second instar larvae, five to seven days, 25° C.; for mortality at 50 µg/cm2: Helicoverpa zea, 168 h. On the procedure: as §1
Bioassays on CEW were conducted using a 128-well diet tray assay. one to five second instar CEW larvae were placed in each well (3 mL) of the diet tray that had been previously filled with 1 mL of artificial diet to which 50 μg/cm^2 of the test compound (dissolved in 50 μL of 90:10 acetone-water mixture) had been applied (to each of eight wells) and then allowed to dry. Trays were covered with a clear self-adhesive cover, and held at 25° C., 14:10 light-dark for five to seven days. Percent mortality was recorded for the larvae in each well; activity in the eight wells was then averaged. The results are indicated in the table entitled “Table 1” (See Table Section).

Take `CCO[C@@H]1[C@@H](OC)[C@H](C)O[C@@H](ONCc2ccc(-c3ncn(-c4ccc(OC(F)(F)C(F)(F)F)cc4)n3)cc2)[C@@H]1OC` [Compound 1, O-((2S,3R,4R,5S,6S)-4-ethoxy-3,5-dimethoxy-6-methyl-tetrahydropyran-2-yl)-N-{4-[1-(4-pentafluoroethyloxy-phenyl)-1H-[1,2,4]triazol-3-yl]-benzyl}-hydroxylamine]: the “% Mortality BAW 50 μg/cm2” value in data set [1] is “A (50-100)”. In data set [2], the “% Mortality GPA 200 ppm” value is given as “B (More than 0-Less than 80)”. The “% Mortality CEW 50 μg/cm2” value in data set [3] is listed as “A (50-100)”.

For `CO[C@@H]1[C@@H](O)[C@H](C)O[C@@H](ONCc2ccc(-c3ncn(-c4ccc(OC(F)(F)C(F)(F)F)cc4)n3)cc2)[C@@H]1OC` [Compound 2, (2S,3S,4R,5R,6S)-4,5-Dimethoxy-2-methyl-6-(N-{4-[1-(4-pentafluoroethyloxy-phenyl)-1H-[1,2,4]triazo1-3-yl]-benzyl}aminooxy)-tetrahydroyran-3-ol], the mortality at 50 µg/cm2 in data set [1] and in data set [3] was 50 to 100% throughout. Besides, the mortality at 200 ppm in data set [2] lay within 0 to 80%.

`CO[C@@H]1[C@@H](OC)[C@H](C)O[C@@H](ONCc2ccc(-c3ncn(-c4ccc(OC(F)(F)F)cc4)n3)cc2)[C@@H]1OC` [Compound 3, N-{4-[1-(4-trifluoromethoxyphenyl)-1H-[1,2,4]triazol-3-yl]-benzyl}-O-((2S,3R,4R,5S,6S)-3,4,5-trimethoxy-6-methyl-tetrahydro-pyran-2-yl)-hydroxylamine]: the “% Mortality BAW 50 μg/cm2” value in data set [1] was “A (50-100)”. This compound displayed a mortality at 200 ppm in data set [2] of 0 to 80%. In addition, the “% Mortality CEW 50 μg/cm2” value in data set [3] was “A (50-100)”.

`CO[C@@H]1[C@@H](OC)[C@H](C)O[C@@H](ONCc2ccc(-c3ncn(-c4ccc(OC(F)(F)F)cc4)n3)cc2)[C@@H]1OC.Cl` [Compound 4, N-{4-[1-(4-trifluoromethoxyphenyl)-1H-[1,2,4]triazol-3-yl]-benzyl}-O-((2S,3R,4R,5S,6S)-3,4,5-trimethoxy-6-methyl-tetrahydropyran-2-yl)-hydroxylamine hydrochloride] gave a mortality at 50 µg/cm2 in data set [1] of 50 to 100%. For the same compound, the “% Mortality CEW 50 μg/cm2” value in data set [3] is given as “B (More than 0-Less than 50)”.

`CCO[C@@H]1[C@@H](OC)[C@H](C)O[C@@H](ONCc2ccc(-c3ncn(-c4ccc(OC(F)(F)C(F)(F)F)cc4)n3)cc2)[C@@H]1OC` [Compound 5, O-((2S,3R,4R,5S,6S)-4-Ethoxy-3,5-dimethoxy-6-methyl-tetrahydropyran-2-yl)-N-{4-[1-(4-pentafluoroethyloxy-phenyl)-1H-[1,2,4]triazol-3-yl]-benzyl}-hydroxylamine hydrochloride]: the mortality at 50 µg/cm2 in data set [1] and in data set [3] was 50 to 100% each time. Also, the mortality at 200 ppm in data set [2] came to 0%.

On to `CO[C@@H]1[C@@H](OC)[C@H](C)O[C@@H](ON(Cc2ccc(-c3ncn(-c4ccc(OC(F)(F)F)cc4)n3)cc2)C(C)=O)[C@@H]1OC` [Compound 6, N-{4-[1-(4-trifluoromethoxyphenyl)-1H-[1,2,4]triazol-3-yl]-benzyl}-N-((2S,3R,4R,5S,6S)-3,4,5-trimethoxy-6-methyl-tetrahydropyran-2-yloxy)-acetamide], for which the mortality at 50 µg/cm2 in data set [1] and in data set [3] was 50 to 100% throughout. Besides, in data set [2], the mortality at 200 ppm is 0 to 80%.

With `CO[C@@H]1[C@@H](OC)[C@H](C)O[C@@H](ON(C)Cc2ccc(-c3ncn(-c4ccc(OC(F)(F)F)cc4)n3)cc2)[C@@H]1OC` [Compound 7, N-Methyl-N-{4-[1-(4-trifluoromethoxyphenyl)-1H-[1,2,4]triazol-3-yl]-benzyl}-O-((2S,3R,4R,5S6S)-3,4,5-trimethoxy-6-methyl-tetrahydro-pyran-2-yl)-hydroxylamine], the mortality at 50 µg/cm2 in data set [1] and in data set [3] was 50 to 100% each time. Besides, in data set [2], the mortality at 200 ppm was determined as 0%.

As to `CO[C@@H]1[C@@H](OC)[C@H](C)O[C@@H](ON(Cc2ccc(-c3ncn(-c4ccc(OC(F)(F)F)cc4)n3)cc2)C(=O)CCC(=O)O)[C@@H]1OC` [Compound 8, N-{4-[1-(4-trifluoromethoxyphenyl)-1H-[1,2,4]triazol-3-yl]-benzyl}-N-((2S,3R,4R,5S,6S)-3,4,5-trimethoxy-6-methyl-tetrahydropyran-2-yloxy)-succinamic acid], the mortality at 50 µg/cm2 in data set [1] and in data set [3] was 0% in each case. Also, the mortality at 200 ppm in data set [2] is 0%.

Consider `COC(=O)CC(=O)N(Cc1ccc(-c2ncn(-c3ccc(OC(F)(F)F)cc3)n2)cc1)O[C@@H]1O[C@@H](C)[C@H](OC)[C@@H](OC)[C@H]1OC` [Compound 9, N-{4-[1-(4-trifluoromethoxyphenyl)-1H-[1,2,4]triazol-3-yl]-benzyl}-N-((2S,3R,4R,5S,6S)-3,4,5-trimethoxy-6-methyl-tetrahydropyran-2-yloxy)-malonamic acid methyl ester], for which the mortality at 50 µg/cm2 in data set [1] and in data set [3] was 50 to 100% in each case. Besides, in data set [2], the mortality at 200 ppm fell in the range of 0 to 80%.
